Molecules are shown by their SMILES. Where only a bound is given, the exact number is not on record here.

This experiment has as its target Recombinant human LSD1 (Homo sapiens, UniProt O60341). The experiment is described as follows: LSD1 inhibition assay (HTRF LSD1 Histone H3K4 mono-demethylation assay, me1->me0). Format: biochemical. Particulars: 20 nM recombinant human LSD1, 95 nM H3K4(me1) biotinylated peptide, 15 min preincubation, 60 min at 25° C., read-out: LSD1 inhibition IC50 (nM range). An outline of the steps: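 Recombinant human LSD1 (20 nM) pre-incubated 15 min with 10 semi-log compound doses, then 95 nM biotinylated H3K4me1 peptide for 60 min at 25 °C in pH 8.5 Tris/NaCl buffer with 10 μM FAD, 1 mM DTT. HTRF me0-antibody read after 90 min; IC50 from 4-parameter fit.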
As for `N#Cc1ccc(-c2cc(CC3CNCCO3)ccc2N2CC(CO)C2)cc1F` (centres unmarked) [Example 137, 3-fluoro-2′-[3-(hydroxymethyl)azetidin-1-yl]-5′-[(morpholin-2-yl)methyl]-[1,1′-biphenyl]-4-carbonitrile], the IC50 was 100 to 1000 nM.

As for `N#Cc1ccc(-c2cc(CN3C[C@]4(N)CC[C@H]3C4)ccc2N2CCC3(CCOC3)CC2)cc1F` [Example 234, 5'-{[(1S,4S)-4-amino-2-azabicyclo[2.2.1]heptan-2-yl]methyl}-3-fluoro-2'-{2-oxa-8-azaspiro[4.5]decan-8-yl}-[1,1'-biphenyl]-4-carbonitrile], the IC50 is less than 10 nM.

On to `COc1cnc(-c2ccc(CN3[C@@H]4CC[C@H]3[C@@H](N)C4)cc2-c2ccc(C#N)c(F)c2)cn1` (racemic) [Example 317, 5'-{[(1S,2S,4R)-2-amino-7-azabicyclo[2.2.1]heptan-7-yl]methyl}-3-fluoro-2'-(5-methoxypyrazin-2-yl)-[1,1'-biphenyl]-4-carbonitrile], for which the IC50 lay in the range of 10 to 25 nM.

Take `N#Cc1ccc(-c2cccc(CC3CNCCO3)c2-c2cccnc2)cc1F` (centres unmarked) [Example 32, 3-fluoro-3′-[(morpholin-2-yl)methyl]-2′-(pyridin-3-yl)-[1,1′-biphenyl]-4-carbonitrile]: the 50% inhibitory concentration (IC50) lay in the range of 25 to 100 nM.

For the molecule `N#Cc1ccc(-c2cc(CC3CNCCO3)ccc2N2CCC3(CCOC3)C2)cc1F` (centres unmarked) [Example 119, 3-fluoro-5′-[(morpholin-2-yl)methyl]-2′-{2-oxa-7-azaspiro[4.4]nonan-7-yl}-[1,1′-biphenyl]-4-carbonitrile], the IC50 was in the range of 100 to 1000 nM.

For `Cc1cccnc1-c1ccc(CN2[C@@H]3CC[C@H]2[C@@H](N)C3)cc1-c1ccc(C#N)c(F)c1` (racemic) [Example 257, 5'-{[(1S,2S,4R)-2-amino-7-azabicyclo[2.2.1]heptan-7-yl]methyl}-3-fluoro-2'-(3-methylpyridin-2-yl)-[1,1'-biphenyl]-4-carbonitrile], the IC50 lay within 10 to 25 nM.

Regarding `Cn1ncc2cc(-c3ccc(CC4CNCCO4)cc3-c3ccc(C#N)c(F)c3)cnc21` (centres unmarked) [Example 56, 3-fluoro-2′-{1-methyl-1H-pyrazolo[3,4-b]pyridin-5-yl}-5′-[(morpholin-2-yl)methyl]-[1,1′-biphenyl]-4-carbonitrile], the half-maximal inhibitory concentration (IC50) lay in the range of 25 to 100 nM.

Turning to `N#Cc1ccc(-c2cc(CN3[C@@H]4CC[C@H]3[C@@H](N)C4)ccc2N2CCC(CF)CC2)cc1F` (racemic) [Example 235, 5'-{[(1S,2S,4R)-2-amino-7-azabicyclo[2.2.1]heptan-7-yl]methyl}-3-fluoro-2'-[4-(fluoromethyl)piperidin-1-yl]-[1,1'-biphenyl]-4-carbonitrile], the IC50 was in the range of 10 to 25 nM.

For the molecule `N#Cc1ccc(-c2cc(CC3CNCCO3)ccc2NCc2cnn3c2CCCC3)cc1F` (centres unmarked) [Example 117, 3-fluoro-5′-[(morpholin-2-yl)methyl]-2′-[{{4H,5H,6H,7H-pyrazolo[1,5-a]pyridin-3-yl}methyl)amino]-[1,1′-biphenyl]-4-carbonitrile], the IC50 was greater than 1000 nM.

Turning to `N#Cc1ccc(-c2cc(CC3CNCCO3)ccc2N2CCC(C3CCOC3)CC2)cc1F` (centres unmarked) [Example 100, 3-fluoro-5′-[(morpholin-2-yl)methyl]-2′-[4-(oxolan-3-yl)piperidin-1-yl]-[1,1′-biphenyl]-4-carbonitrile], the IC50 fell in the range of 25 to 100 nM.

`N#Cc1ccc(-c2cccc(CN3[C@@H]4CC[C@H]3[C@H](N)C4)c2C2CC2)cc1F` (racemic) [Example 319, 3'-{[(1S,2R,4R)-2-amino-7-azabicyclo[2.2.1]heptan-7-yl]methyl}-2'-cyclopropyl-3-fluoro-[1,1'-biphenyl]-4-carbonitrile]: the concentration for half-maximal inhibition (IC50) was in the range of 25 to 100 nM.

With `CN1CCC(O)(Cc2cccc(-c3ccc(C#N)c(F)c3)c2C2CC2)CC1` [Example 166, 2′-cyclopropyl-3-fluoro-3′-[(4-hydroxy-1-methylpiperidin-4-yl)methyl]-[1,1′-biphenyl]-4-carbonitrile], the IC50 was in the range of 100 to 1000 nM.

As for `N#Cc1ccc(-c2cc(CN3[C@@H]4CC[C@H]3[C@@H](N)C4)ccc2OCC2CC2)cc1F` (racemic) [Example 311, 5'-{[(1S,2S,4R)-2-amino-7-azabicyclo[2.2.1]heptan-7-yl]methyl}-2'-(cyclopropylmethoxy)-3-fluoro-[1,1'-biphenyl]-4-carbonitrile], the IC50 lay in the range of 10 to 25 nM.

As for `N#Cc1ccc(-c2cc(CC3CNC4(CC4)CO3)ccc2N2CCC2)cc1F` (centres unmarked) [Example 135, 2′-(azetidin-1-yl)-3-fluoro-5′-({7-oxa-4-azaspiro[2.5]octan-6-yl}methyl)-[1,1′-biphenyl]-4-carbonitrile], the IC50 was greater than 1000 nM.

In the case of `N#Cc1ccc(-c2cccc(CN3[C@@H]4CC[C@H]3[C@@H](N)C4)c2N2CCC2)cc1F` (racemic) [Example 203, 3'-{[(1S,2S,4R)-2-amino-7-azabicyclo[2.2.1]heptan-7-yl]methyl}-2'-(azetidin-1-yl)-3-fluoro-[1,1'-biphenyl]-4-carbonitrile], the IC50 lay in the range of 25 to 100 nM.

For `N#Cc1ccc(-c2cccc(CN3CCCCC34CCCNC4)c2Cl)cc1F` (centres unmarked) [Example 281, 2'-chloro-3'-({1,8-diazaspiro[5.5]undecan-1-yl}methyl)-3-fluoro-[1,1'-biphenyl]-4-carbonitrile], the IC50 is greater than 1000 nM.

As for `CC(C)C1(O)CN(c2ccc(CC3CNCCO3)cc2-c2ccc(C#N)c(F)c2)C1` (centres unmarked) [Example 122, 3-fluoro-2′-[3-hydroxy-3-(propan-2-yl)azetidin-1-yl]-5′-[(morpholin-2-yl)methyl]-[1,1′-biphenyl]-4-carbonitrile], the IC50 lay in the range of 100 to 1000 nM.

For `N#Cc1ccc(-c2cccc(CN3CCC4(CNC4)C3)c2Cl)cc1F` [Example 341, 2'-chloro-3'-({2,6-diazaspiro[3.4]octan-6-yl}methyl)-3-fluoro-[1,1'-biphenyl]-4-carbonitrile], the IC50 is 100 to 1000 nM.

With `C[C@@H]1CCN(Cc2cccc(-c3ccc(C#N)c(F)c3)c2Cl)C[C@H]1N` (racemic) [Example 331, 3'-{[(3S,4R)-3-amino-4-methylpiperidin-1-yl]methyl}-2'-chloro-3-fluoro-[1,1'-biphenyl]-4-carbonitrile], the IC50 is greater than 1000 nM.

In the case of `COc1ccc(-c2ccc(CN3[C@@H]4CC[C@H]3[C@@H](N)C4)cc2-c2ccc(C#N)c(F)c2)cn1` (racemic) [Example 230, 5'-{[(1S,2S,4R)-2-amino-7-azabicyclo[2.2.1]heptan-7-yl]methyl}-3-fluoro-2'-(6-methoxypyridin-3-yl)-[1,1'-biphenyl]-4-carbonitrile], the IC50 fell in the range of 10 to 25 nM.

On to `N#Cc1ccc(-c2cc(CC3CNCCO3)ccc2C2CC2)cc1F` (centres unmarked) [Example 141, 2′-cyclopropyl-3-fluoro-5′-[(morpholin-2-yl)methyl]-[1,1′-biphenyl]-4-carbonitrile], for which the 50% inhibitory concentration (IC50) lay in the range of 100 to 1000 nM.

As for `N#Cc1ccc(-c2cc(CC3CNCCO3)ccc2N2CC(c3ccc(C4CC4)nc3)C2)cc1F` (centres unmarked) [Example 101, 2′-[3-(6-cyclopropylpyridin-3-yl)azetidin-1-yl]-3-fluoro-5′-[(morpholin-2-yl)methyl]-[1,1′-biphenyl]-4-carbonitrile], the IC50 was 100 to 1000 nM.

On to `Cc1cc(CNCC2(C)CCN(C)C2)c(Cl)c(-c2ccc(C#N)c(F)c2)c1` (centres unmarked) [Example 298, 2'-chloro-3'-({[(1,3-dimethylpyrrolidin-3-yl)methyl]amino}methyl)-3-fluoro-5'-methyl-[1,1'-biphenyl]-4-carbonitrile], for which the IC50 fell in the range of 100 to 1000 nM.

As usually defined, the IC50 is the concentration needed to halve the response being measured.

These data come from patent publication US20260209214A1, “LSD1 MODULATORS” (RECURSION PHARMACEUTICALS, INC., priority 2022, published 2026).
